Laboratory results: US11370763B2, “Compounds and compositions for treating conditions associated with NLRP activity” (Novartis AG, priority 2017, dated 2022)
Where two headings read alike, the source gives them in different places.

Test system: IL-1β production in PMA-differentiated THP-1 cells
Assay: IL-1β production in PMA-differentiated THP-1 cells stimulated with gramicidin (hTHP-1 assay containing 2% fetal bovine serum; Procedures 1-3)
Type: cell-based, human
Conditions: read-out: hTHP-1 IC50 (Average IC50 of compounds in hTHP-1 assay)
Procedure: The following protocol is suitable for testing the activity of the compounds disclosed herein.
Procedure 1: IL-1β Production in PMA-Differentiated THP-1 Cells Stimulated with Gramicidin
THP-1 cells were purchased from the American Type Culture Collection and sub-cultured according to instructions from the supplier. Cells were cultured in complete RPMI 1640 (containing 10% heat inactivated FBS, penicillin (100 units/ml) and streptomycin (100 μg/ml)), and maintained in log phase prior to experimental setup. Prior to the experiment, compounds were dissolved in dimethyl sulfoxide (DMSO) to generate a 30 mM stock. The compound stock was first pre-diluted in DMSO to 3, 0.34, 0.042 and 0.0083 mM intermediate concentrations and subsequently spotted using Echo550 liquid handler into an empty 384-well assay plate to achieve desired final concentration (e.g. 100, 33, 11, 3.7, 1.2, 0.41, 0.14, 0.046, 0.015, 0.0051, 0.0017 μM). DMSO was backfilled in the plate to achieve a final DMSO assay concentration of 0.37%. The plate was then sealed and stored at room temperature until required.
THP-1 cells were treated with PMA (Phorbol 12-myristate 13-acetate) (20 ng/ml) for 16-18 hours. On the day of the experiment the media was removed and adherent cells were detached with trypsin for 5 minutes. Cells were then harvested, washed with complete RPMI 1640, spun down, and resuspended in RPMI 1640 (containing 2% heat inactivated FBS, penicillin (100 units/ml) and streptomycin (100 μg/ml). The cells were plated in the 384-well assay plate containing the spotted compounds at a density of 50,000 cells/well (final assay volume 50 μl). Cells were incubated with compounds for 1 hour and then stimulated with gramicidin (5 μM) (Enzo) for 2 hours. Plates were then centrifuged at 340 g for 5 min. Cell free supernatant (40 μL) was collected using a 96-channel PlateMaster (Gilson) and the production of IL-1β was evaluated by HTRF (cisbio). The plates were incubated for 18 h at 4° C. and read using the preset HTRF program (donor emission at 620 nm, acceptor emission at 668 nm) of the SpectraMax i3x spectrophotometer (Molecular Devices, software SoftMax 6). A vehicle only control and a dose titration of CRID3 (100-0.0017 μM) were run concurrently with each experiment.
Procedure 2: IL-1β Production in PMA-Differentiated THP-1 Cells Stimulated with Gramicidin
THP-1 cells were purchased from the American Type Culture Collection and sub-cultured according to instructions from the supplier. Prior to experiments, cells were cultured in complete RPMI 1640 (containing 10% heat inactivated FBS, penicillin (100 units/ml) and streptomycin (100 μg/ml)), and maintained in log phase prior to experimental setup. Prior to the experiment THP-1 were treated with PMA (Phorbol 12-myristate 13-acetate) (20 ng/ml) for 16-18 hours. Compounds were dissolved in dimethyl sulfoxide (DMSO) to generate a 30 mM stock. On the day of the experiment the media was removed and adherent cells were detached with trypsin for 5 minutes. Cells were then harvested, washed with complete RPMI 1640, spun down, resuspended in RPMI 1640 (containing 2% heat inactivated FBS, penicillin (100 units/ml) and streptomycin (100 μg/ml). The cells were plated in a 384-well plate at a density of 50,000 cells/well (final assay volume 50 μl). Compounds were first dissolved in assay medium to obtain a 5× top concentration of 500 μM. 10 step dilutions (1:3) were then undertaken in assay medium containing 1.67% DMSO. 5× compound solutions were added to the culture medium to achieve desired final concentration (e.g. 100, 33, 11, 3.7, 1.2, 0.41, 0.14, 0.046, 0.015, 0.0051, 0.0017 μM). Final DMSO concentration was at 0.37%. Cells were incubated with compounds for 1 hour and then stimulated with gramicidin (5 μM) (Enzo) for 2 hours. Plates were then centrifuged at 340 g for 5 min. Cell free supernatant (40 μL) was collected using a 96-channel PlateMaster (Gilson) and the production of IL-1β was evaluated by HTRF (cisbio). […]

[1] = hTHP-1 assay containing 2% fetal bovine serum, class symbols
[2] = Homo sapiens, THP-1, hTHP-1 assay containing 2% fetal bovine serum, class symbols
[3] = Homo sapiens, THP-1, hTHP-1 assay containing 2% fetal bovine serum, given as numeric bound

| Structure (SMILES) | IC50 [1] | other results |
| --- | --- | --- |
| CC(C)c1cc(OC(F)F)cc(C(C)C)c1CC(=O)N=S(N)(=O)c1sc(C(C)(C)O)cc1F (single isomer, unassigned) [Example 76, (S)- or (R)-2-(4-(difluoromethoxy)-2,6-diisopropylphenyl)-N-(3-fluoro-5-(2-hydroxypropan-2-yl)thiophen-2-ylsulfonimidoyl)acetamide] | 40 to 200 nM |  |
| CCc1cc(OC(F)F)cc(C(C)C)c1CC(=O)N=S(N)(=O)c1sc(C(C)(C)O)cc1F (single isomer, unassigned) [Example 78, (S)- or (R)-2-(4-(difluoromethoxy)-2-ethyl-6-isopropylphenyl)-N-(3-fluoro-5-(2-hydroxypropan-2-yl)thiophen-2-ylsulfonimidoyl)acetamide] | 200 to 1000 nM |  |
| CC(C)c1cc(C#N)cc(C(C)C)c1CC(=O)N=S(N)(=O)c1ccc(C(C)(C)O)cc1Cl (single isomer, unassigned) [Example 155, (R) or (S)-N-(amino(2-chloro-4-(2-hydroxypropan-2-yl)phenyl)(oxo)-λ^6-sulfaneylidene)-2-(4-cyano-2,6-diisopropylphenyl)acetamide] |  | IC50 [2]: 200 to 1000 nM |
| CC(C)c1cc(C#N)cc(C(C)C)c1CC(=O)N=S(N)(=O)c1ccc(C(C)(C)O)cc1Cl (single isomer, unassigned) [Example 156, (S) or (R)-N-(amino(2-chloro-4-(2-hydroxypropan-2-yl)phenyl)(oxo)-λ^6-sulfaneylidene)-2-(4-cyano-2,6-diisopropylphenyl)acetamide] | 200 to 1000 nM |  |
| CC(C)c1ccc(F)c(C(C)C)c1CC(=O)N=S(N)(=O)c1cc(C(C)(C)O)cs1 (single isomer, unassigned) [Example 159, (R) or (S)-N-(amino(4-(2-hydroxypropan-2-yl)thiophen-2-yl)(oxo)-λ^6-sulfaneylidene)-2-(3-fluoro-2,6-diisopropylphenyl)acetamide] | 40 to 200 nM |  |
| CC(C)c1cc(-c2ccc3c(c2)OC(F)(F)O3)cc(C(C)C)c1CC(=O)N=S(N)(=O)c1ncc(C(C)(C)O)s1 (single isomer, unassigned) [Example 166, (R) or (S)-N-(amino(5-(2-hydroxypropan-2-yl)thiazol-2-yl)(oxo)-λ^6-sulfaneylidene)-2-(4-(2,2-difuorobenzo[d][1,3]dioxol-5-yl)-2,6-diisopropylphenyl)acetamide] | 40 to 200 nM |  |
| Cc1ccc(-c2cc(C(C)C)c(CC(=O)N=S(N)(=O)c3ncc(C(C)(C)O)s3)c(C(C)C)c2)cc1C (single isomer, unassigned) [Example 168, (R) or (S)-N-(amino(5-(2-hydroxypropan-2-yl)thiazol-2-yl)(oxo)-λ^6-sulfaneylidene)-2-(3,5-diisopropyl-3′,4′-dimethyl-[1,1′-biphenyl]-4-yl)acetamide] | 200 to 1000 nM |  |
| CC(C)c1cc2c(c(C(C)C)c1CC(=O)N=S(N)(=O)c1ccc(CN(C)C)cc1)COC2 (single isomer, unassigned) [Example 191, (R) or (S)-N-(amino(4-((dimethylamino)methyl)phenyl) (oxo)-λ^6-sulfaneylidene)-2-(4,6-diisopropyl-1,3-dihydroisobenzofuran-5-yl)acetamide] |  | IC50 [2]: 1000 to 5000 nM |
| CC(C)c1cc2c(c(C(C)C)c1CC(=O)N=S(N)(=O)c1ccc(CN(C)C)cc1)COC2 (single isomer, unassigned) [Example 192, (S) or (R)-N-(amino(4-((dimethylamino)methyl)phenyl) (oxo)-λ^6-sulfaneylidene)-2-(4,6-diisopropyl-1,3-dihydroisobenzofuran-5-yl)acetamide] |  | IC50 [3]: > 30000 nM |
| CC(C)c1cc(F)cc(C(C)C)c1C(C)C(=O)N=S(N)(=O)c1cnc(C(C)(C)O)s1 (single isomer, unassigned) [Example 194, (R, S) or (R, R)-N-(amino(2-(2-hydroxypropan-2-yl)thiazol-5-yl)(oxo)-λ^6-sulfaneylidene)-2-(4-fluoro-2,6-diisopropylphenyl) propanamide] |  | IC50 [2]: 5000 to 30000 nM |
| CC(C)c1cc(F)cc(C(C)C)c1C(C)C(=O)N=S(N)(=O)c1cnc(C(C)(C)O)s1 (single isomer, unassigned) [Example 195, (R, R) or (R, S)-N-(amino(2-(2-hydroxypropan-2-yl)thiazol-5-yl)(oxo)-λ^6-sulfaneylidene)-2-(4-fluoro-2,6-diisopropylphenyl) propanamide] |  | IC50 [3]: > 30000 nM |
| CC(C)(O)c1ncc(S(N)(=O)=NC(=O)Cc2c(C3CC3)cc(F)cc2C(F)(F)F)s1 (single isomer, unassigned) [Example 196, (R) or (S)-N-(amino(2-(2-hydroxypropan-2-yl)thiazol-5-yl)(oxo)-λ^6-sulfaneylidene)-2-(2-cyclopropyl-4-fluoro-6-(trifluoromethyl)phenyl) acetamide] |  | IC50 [2]: 5000 to 30000 nM |
| CC(C)(O)c1ncc(S(N)(=O)=NC(=O)Cc2c(C3CC3)cc(F)cc2C(F)(F)F)s1 (single isomer, unassigned) [Example 197, (S) or (R)-N-(amino(2-(2-hydroxypropan-2-yl)thiazol-5-yl)(oxo)-λ^6-sulfaneylidene)-2-(2-cyclopropyl-4-fluoro-6-(trifluoromethyl)phenyl) acetamide] |  | IC50 [3]: > 30000 nM |

The next lines start with results.

| IC50 [1] | Structure (SMILES) | other results |
| --- | --- | --- |
| 200 to 1000 nM | CC(C)c1cc(-c2ccc(Cl)c(Cl)c2)cc(C(C)C)c1CC(=O)N=S(N)(=O)c1ncc(C(C)(C)O)s1 (single isomer, unassigned) [Example 170, (R) or (S)-N-(amino(5-(2-hydroxypropan-2-yl)thiazol-2-yl)(oxo)-λ^6-sulfaneylidene)-2-(3′,4′-dichloro-3,5-diisopropyl-[1,1′-biphenyl]-4-yl)acetamide] |  |
| 200 to 1000 nM | CC(C)c1cc(-c2ccc3c(c2)COCC3)cc(C(C)C)c1CC(=O)N=S(N)(=O)c1cnc(C(C)(C)O)s1 (single isomer, unassigned) [Example 171, (R) or (S)-N-(amino(2-(2-hydroxypropan-2-yl)thiazol-5-yl)(oxo)-λ^6-sulfaneylidene)-2-(4-(isochroman-7-yl)-2,6-diisopropylphenyl)acetamide] |  |
| 200 to 1000 nM | CC(C)c1ccc(F)c(C(C)C)c1CC(=O)N=S(N)(=O)c1ccc(C(C)(C)O)s1 (single isomer, unassigned) [Example 176, (R) or (S)-N-(amino(5-(2-hydroxypropan-2-yl)thiophen-2-yl)(oxo)-λ^6-sulfaneylidene)-2-(3-fluoro-2,6-diisopropylphenyl)acetamide] |  |
| 200 to 1000 nM | CC(C)c1ccc(C#N)c(C(C)C)c1CC(=O)N=S(N)(=O)c1nc(C(C)(C)O)cs1 (single isomer, unassigned) [Example 179, (R) or (S)-N-(amino(4-(2-hydroxypropan-2-yl)thiazol-2-yl)(oxo)-λ^6-sulfaneylidene)-2-(3-cyano-2,6-diisopropylphenyl)acetamide] |  |
| 40 to 200 nM | COCc1cc(C(C)C)c(CC(=O)N=S(N)(=O)c2ncc(C(C)(C)O)s2)c(C(C)C)c1 (single isomer, unassigned) [Example 185, (R) or (S)-N-(amino(5-(2-hydroxypropan-2-yl)thiazol-2-yl)(oxo)-λ^6-sulfaneylidene)-2-(2,6-diisopropyl-4-(methoxymethyl)phenyl) acetamide] |  |
